Experimental data reported in ChEMBL document CHEMBL6071193, “Structure-Activity Relationship of Potent, Selective, and Orally Bioavailable Molecular Glue Degraders of CK1α” (ACS Med Chem Lett, 2024).
In brackets after ≈: the same amount, converted by molar mass. Activity calls are given as the source filed them. The rule behind the calls is not given here.

Key:
[1] = Volume of distribution at steady state in female CD-1 mouse at 3 mg/kg, iv administered as 5% v/v NMP, 5% v/v solutol HS-15, 20% PEG 400 and 70% v/v normal saline formulation and measured after 24 hrs; format: ADME, organism-based; conditions: in vivo
[2] = Oral bioavailability in female CD-1 mouse at 10 mg/kg administered as 5% v/v NMP, 5% v/v solutol HS-15, 20% PEG 400 and 70% v/v normal saline formulation and measured after 24 hrs; format: ADME, organism-based; conditions: in vivo
[3] = Stability in human plasma assessed as half-life at 10 uM measured upto 48 hrs by UPLC-MS/MS analysis; format: ADME, cell-free
[4] = Apparent permeability across apical to basolateral side in MDCK-II cells at 10 micromol/L incubated for 1 hrs by UPLC/MS analysis; format: ADME, cell-based, Canis lupus familiaris; conditions: dog, mdck-ii, 1 h, 10 µM, dose 10 µmol/L
[5] = Solubility of compound at pH 7.4 incubated for 18 hrs by UV-spectra analysis; format: physicochemical; conditions: buffer; for solubility: pH 7.4, 18 h
[6] = Clearance in female CD-1 mouse assessed as hepatic blood flow at 3 mg/kg, iv administered as 5% v/v NMP, 5% v/v solutol HS-15, 20% PEG 400 and 70% v/v normal saline formulation and measured after 24 hrs; format: ADME, organism-based; conditions: in vivo
[7] = Metabolic stability in pooled human liver microsomes assessed as half-life at 10 uM measured upto 4 hrs in presence of NADPH by UPLC-MS/MS analysis; format: ADME, Microsome
[8] = biological target: T1, Cereblon/Casein kinase I alpha (Homo sapiens, UniProt P48729+Q96SW2); assay: PROTAC activity at CRBN/HiBiT-tagged CK1alpha in HEK293 cells transfected with LgBiT expression vector assessed as induction of CK1alpha degradation by measuring maximal efficacy at 10 uM measured after 24 hrs by luminescence based GloMax Discover assay relative to control; format: cell-based
Target sequence in this assay (P48729 2-337 limits assumed): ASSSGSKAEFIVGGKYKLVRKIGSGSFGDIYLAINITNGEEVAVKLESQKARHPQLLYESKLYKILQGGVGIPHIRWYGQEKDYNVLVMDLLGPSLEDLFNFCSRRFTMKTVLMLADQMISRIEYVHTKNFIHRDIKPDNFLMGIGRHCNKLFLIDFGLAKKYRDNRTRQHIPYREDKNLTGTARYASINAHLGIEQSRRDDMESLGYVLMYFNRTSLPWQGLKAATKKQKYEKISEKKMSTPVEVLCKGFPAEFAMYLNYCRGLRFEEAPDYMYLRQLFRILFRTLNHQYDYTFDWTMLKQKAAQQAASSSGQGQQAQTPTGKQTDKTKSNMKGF
Target sequence in this assay (Q96SW2 whole entry partner): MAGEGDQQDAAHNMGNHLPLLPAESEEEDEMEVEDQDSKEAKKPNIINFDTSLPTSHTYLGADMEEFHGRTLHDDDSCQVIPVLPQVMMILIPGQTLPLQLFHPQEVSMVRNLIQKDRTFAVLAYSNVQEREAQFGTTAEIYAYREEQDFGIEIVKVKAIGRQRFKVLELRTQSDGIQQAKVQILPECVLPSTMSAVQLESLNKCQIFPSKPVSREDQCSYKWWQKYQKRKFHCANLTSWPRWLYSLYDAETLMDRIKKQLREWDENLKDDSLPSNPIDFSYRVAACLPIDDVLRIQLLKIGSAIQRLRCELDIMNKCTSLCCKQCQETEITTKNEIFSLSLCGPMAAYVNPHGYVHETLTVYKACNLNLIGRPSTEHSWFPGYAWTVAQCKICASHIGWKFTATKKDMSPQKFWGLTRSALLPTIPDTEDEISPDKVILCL

[9] = biological target: T1, Cereblon/Casein kinase I alpha; assay: PROTAC activity at CRBN/HiBiT-tagged CK1alpha in HEK293 cells transfected with LgBiT expression vector assessed as induction of CK1alpha degradation measured after 24 hrs by luminescence based GloMax Discover assay; format: cell-based
Target sequence in this assay (P48729 whole entry): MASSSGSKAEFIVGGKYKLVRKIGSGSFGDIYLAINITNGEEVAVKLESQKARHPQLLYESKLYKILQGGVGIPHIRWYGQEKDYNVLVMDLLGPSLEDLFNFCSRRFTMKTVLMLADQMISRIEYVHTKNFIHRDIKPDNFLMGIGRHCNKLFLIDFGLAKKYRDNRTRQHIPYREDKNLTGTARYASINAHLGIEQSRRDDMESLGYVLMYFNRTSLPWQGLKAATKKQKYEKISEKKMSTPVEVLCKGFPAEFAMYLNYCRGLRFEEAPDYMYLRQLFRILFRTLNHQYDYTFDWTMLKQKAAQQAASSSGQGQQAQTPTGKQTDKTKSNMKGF
Target sequence in this assay (Q96SW2 whole entry): as the sequence (Q96SW2 whole entry partner) above

[10] = Half-life in female CD-1 mouse at 3 mg/kg, iv administered as 5% v/v NMP, 5% v/v solutol HS-15, 20% PEG 400 and 70% v/v normal saline formulation and measured after 24 hrs; format: ADME, organism-based; conditions: in vivo
Jurkat = assay: Cytotoxicity against human Jurkat cells expressing HiBiT-tagged IKZF1 at 0.0001 to 100 uM measured over 24 hrs by Cell-Titer Glo assay; format: toxicity, cell-based; conditions: dose 0.0001-100 µM
HEK293 = assay: Cytotoxicity against HEK293 cells expressing HiBiT-tagged CK1alpha at 0.0001 to 100 uM measured over 24 hrs by Cell-Titer Glo assay; format: toxicity, cell-based; conditions: human, hek293, 24 h, dose 0.0001-100 µM
Cereblon/Ikaros = Cereblon/Ikaros (Homo sapiens, UniProt Q96SW2+Q13422); assay: PROTAC activity at CRBN/HiBiT-tagged IKZF1 in human Jurkat cells transfected with LgBiT expression vector assessed as induction of IKZF1 degradation measured after 24 hrs by luminescence based GloMax Discover assay; format: cell-based
[11] = AUClast in female CD-1 mouse at 3 mg/kg, iv administered as 5% v/v NMP, 5% v/v solutol HS-15, 20% PEG 400 and 70% v/v normal saline formulation and measured after 24 hrs; format: ADME, organism-based; conditions: in vivo
[12] = biological target: T1, Cereblon/Casein kinase I alpha; assay: Binding affinity to Halo-tagged CRBN (unknown origin)/HiBiT-tagged CK1alpha in HEK293 cells transfected with LgBiT expression vector assessed as ternary complex formation by measuring fold increase in NanoBRET signal preincubated with MG132 for 30 mins followed by compound addition and measured after 2 hrs by NanoBRET assay relative to control; format: cell-based
Target sequence in this assay (P48729 2-337 limits assumed): as the sequence (P48729 2-337 limits assumed) above
Target sequence in this assay (Q96SW2 whole entry partner): as the sequence (Q96SW2 whole entry partner) above

[13] = biological target: T1, Cereblon/Casein kinase I alpha; assay: PROTAC activity at CRBN/HiBiT-tagged CK1alpha in HEK293 cells transfected with LgBiT expression vector assessed as induction of CK1alpha degradation by measuring degradation rate at 10 uM measured after 24 hrs by luminescence based GloMax Discover assay; format: cell-based
Target sequence in this assay (P48729 2-337 limits assumed): as the sequence (P48729 2-337 limits assumed) above
Target sequence in this assay (Q96SW2 whole entry partner): as the sequence (Q96SW2 whole entry partner) above

[14] = biological target: T1, Cereblon/Casein kinase I alpha; assay: Binding affinity to Halo-tagged CRBN (unknown origin)/HiBiT-tagged CK1alpha in HEK293 cells transfected with LgBiT expression vector assessed as ternary complex formation preincubated with MG132 for 30 mins followed by compound addition and measured after 2 hrs by NanoBRET assay; format: cell-based
Target sequence in this assay (P48729 whole entry): as the sequence (P48729 whole entry) above
Target sequence in this assay (Q96SW2 whole entry): as the sequence (Q96SW2 whole entry partner) above

MOLM-13 [15] = assay: Antiproliferative activity against human MOLM-13 cells incubated for 72 hrs by Cell-Titer Glo assay; format: functional, cell-based; conditions: MOLM-13, 72 h
MOLM-13 [16] = assay: Downregulation of CK1alpha protein level in human MOLM-13 cells at 1 uM measured after 4 hrs by TMT-proteomic analysis; format: functional, cell-based
[17] = AUClast in female CD-1 mouse at 10 mg/kg, po administered as 5% v/v NMP, 5% v/v solutol HS-15, 20% PEG 400 and 70% v/v normal saline formulation and measured after 24 hrs; format: ADME, organism-based; conditions: in vivo
[18] = biological target: Protein cereblon/Eukaryotic peptide chain release factor GTP-binding subunit ERF3A (Homo sapiens) (UniProt Q96SW2+P15170); assay: PROTAC activity at CRBN (unknown origin)/human HiBiT-tagged GSPT1 transfected in HEK293 cells assessed as induction of GSPT1 degradation measured after 24 hrs by Nano-Glo reagent based luminescence analysis; format: cell-based
[19] = Metabolic stability in mouse liver microsomes assessed as half-life at 10 uM measured upto 4 hrs in presence of NADPH by UPLC-MS/MS analysis; format: ADME, Microsome; conditions: microsomes, 4 h, 10 µM
[20] = Cmax in female CD-1 mouse at 3 mg/kg, iv administered as 5% v/v NMP, 5% v/v solutol HS-15, 20% PEG 400 and 70% v/v normal saline formulation and measured after 24 hrs; format: ADME, organism-based; conditions: in vivo
[21] = Tmax in female CD-1 mouse at 10 mg/kg, po administered as 5% v/v NMP, 5% v/v solutol HS-15, 20% PEG 400 and 70% v/v normal saline formulation and measured after 24 hrs; format: ADME, organism-based; conditions: in vivo
[22] = Apparent permeability across basolateral to apical side in MDCK-II cells at 10 micromol/L incubated for 1 hrs by UPLC/MS analysis; format: ADME, cell-based, Canis lupus familiaris; conditions: dog, mdck-ii, 1 h, 10 µM, dose 10 µmol/L
[23] = Stability in mouse plasma assessed as half-life at 10 uM measured upto 48 hrs by UPLC-MS/MS analysis; format: ADME, cell-free; conditions: 48 h, 10 µM
[24] = Cmax in female CD-1 mouse at 10 mg/kg, po administered as 5% v/v NMP, 5% v/v solutol HS-15, 20% PEG 400 and 70% v/v normal saline formulation and measured after 24 hrs; format: ADME, organism-based; conditions: in vivo
[25] = Metabolic stability in human hepatocytes assessed as half-life; format: ADME, cell-based, Hepatocyte
[26] = Metabolic stability in CD1 mouse hepatocytes assessed as half-life; format: ADME, cell-based, Hepatocyte; conditions: mouse
[27] = Volume of distribution at steady state in female CD-1 mouse at 3 mg/kg, iv administered as 5% v/v NMP, 5% v/v solutol HS-15 and 70% v/v normal saline formulation and measured after 24 hrs; format: ADME, organism-based; conditions: in vivo
[28] = Oral bioavailability in female CD-1 mouse at 10 mg/kg administered as 5% v/v NMP, 5% v/v solutol HS-15 and 70% v/v normal saline formulation and measured after 24 hrs; format: ADME, organism-based; conditions: in vivo
[29] = Half-life in female CD-1 mouse at 3 mg/kg, iv administered as 5% v/v NMP, 5% v/v solutol HS-15 and 70% v/v normal saline formulation and measured after 24 hrs; format: ADME, organism-based; conditions: in vivo
[30] = Cmax in female CD-1 mouse at 10 mg/kg, po administered as 5% v/v NMP, 5% v/v solutol HS-15 and 70% v/v normal saline formulation and measured after 24 hrs; format: ADME, organism-based; conditions: in vivo
[31] = AUClast in female CD-1 mouse at 10 mg/kg, po administered as 5% v/v NMP, 5% v/v solutol HS-15 and 70% v/v normal saline formulation and measured after 24 hrs; format: ADME, organism-based; conditions: in vivo
[32] = Cmax in female CD-1 mouse at 3 mg/kg, iv administered as 5% v/v NMP, 5% v/v solutol HS-15 and 70% v/v normal saline formulation and measured after 24 hrs; format: ADME, organism-based; conditions: in vivo
[33] = AUClast in female CD-1 mouse at 3 mg/kg, iv administered as 5% v/v NMP, 5% v/v solutol HS-15 and 70% v/v normal saline formulation and measured after 24 hrs; format: ADME, organism-based; conditions: in vivo

Protein cereblon/Eukaryotic peptide chain release factor GTP-binding subunit ERF3A (Homo sapiens), sequence (P15170 whole entry, looked up): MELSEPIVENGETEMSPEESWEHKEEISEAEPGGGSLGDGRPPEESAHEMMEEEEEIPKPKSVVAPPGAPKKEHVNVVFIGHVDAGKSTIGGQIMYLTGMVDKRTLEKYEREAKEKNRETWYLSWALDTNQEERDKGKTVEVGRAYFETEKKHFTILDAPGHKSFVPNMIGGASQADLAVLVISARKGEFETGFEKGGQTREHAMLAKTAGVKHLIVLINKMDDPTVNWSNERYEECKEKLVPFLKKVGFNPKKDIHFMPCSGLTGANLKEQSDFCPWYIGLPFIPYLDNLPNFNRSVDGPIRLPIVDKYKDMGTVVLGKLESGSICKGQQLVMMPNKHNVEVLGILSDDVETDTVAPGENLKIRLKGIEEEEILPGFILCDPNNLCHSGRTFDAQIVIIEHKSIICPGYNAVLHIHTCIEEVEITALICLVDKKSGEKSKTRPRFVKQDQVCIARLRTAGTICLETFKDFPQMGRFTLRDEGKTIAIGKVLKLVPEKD
Protein cereblon/Eukaryotic peptide chain release factor GTP-binding subunit ERF3A (Homo sapiens), sequence (Q96SW2 whole entry, looked up): as the sequence (Q96SW2 whole entry partner) above

Which Vdss [1] does the source give for O=C1CCC(N2Cc3cc(NC(=O)c4cccc(F)c4)ccc3C2=O)C(=O)N1 (stereo not given) here?
The Vdss was 0.88 L/kg.

And the F [2]?
Its F is 41%.

What about the t1/2 [3] of the same molecule?
Its t1/2 is 10.6 h.

And the Papp [4]?
Its Papp is 0.6 ×10⁻⁶ cm/s.

What about the solubility [5] of the same molecule?
Its solubility is 19 µM (≈ 7.25 µg/mL).

What about the QH [6] of the same molecule?
The QH was 27%.

What about the t1/2 [7] of the same molecule?
Its t1/2 is over 10 h.

And the Emax [8]?
The Emax was 88%.

And the DC50 [9]?
Its DC50 is 4 nM.

What about the t1/2 [10] of the same molecule?
The t1/2 was 1.19 h.

What about the Activity (Jurkat) of the same molecule?
The Activity was “Non-Toxic”.

And the Activity (HEK293)?
The Activity was “Non-Toxic”.

And the Activity (Cereblon/Ikaros)?
Its Activity is “inactive”.

And the AUClast [11]?
The AUClast was 2049 ng·h/mL.

And the fold change (FC) [12]?
The fold change (FC) was 7.4.

And the Activity [13]?
The Activity was 1.3 h⁻¹.

What about the EC50 [14] of the same molecule?
Its EC50 is 119 nM.

What about the IC50 (MOLM-13 [15]) of the same molecule?
Its IC50 is 28 nM.

What about the Activity (MOLM-13 [16]) of the same molecule?
The Activity was “Active”.

What about the AUClast [17] of the same molecule?
Its AUClast is 2804 ng·h/mL.

What about the Activity [18] of the same molecule?
Its Activity is “inactive”.

And the t1/2 [19]?
The t1/2 was over 10 h.

What about the Cmax [20] of the same molecule?
Its Cmax is 6450 ng/mL.

And the Tmax [21]?
Its Tmax is 0.25 h.

And the Papp [22]?
Its Papp is 1.8 ×10⁻⁶ cm/s.

What about the t1/2 [23] of the same molecule?
Its t1/2 is 10 h.

And the Cmax [24]?
Its Cmax is 1617 ng/mL.

Which Vdss [1] does the source give for O=C1CCC(N2Cc3cc(Nc4noc5ccccc45)ccc3C2=O)C(=O)N1 (stereo not given) here?
Its Vdss is 1.11 L/kg.

What about the F [2] of the same molecule?
The F was 9.5%.

And the t1/2 [3]?
The t1/2 was 8.5 h.

And the Papp [4]?
The Papp was 24.5 ×10⁻⁶ cm/s.

What about the solubility at 18 h ([5]; pH 7.4) of the same molecule?
The solubility at 18 h was 36 µM (≈ 13.5 µg/mL).

What about the t1/2 [7] of the same molecule?
Its t1/2 is over 10 h.

What about the Emax [8] of the same molecule?
The Emax was 95%.

And the DC50 [9]?
The DC50 was 1 nM.

What about the t1/2 [10] of the same molecule?
Its t1/2 is 0.35 h.

What about the AUClast [11] of the same molecule?
The AUClast was 832 ng·h/mL.

What about the Activity [13] of the same molecule?
Its Activity is 3.5 h⁻¹.

What about the t1/2 [25] of the same molecule?
The t1/2 was over 3.6 h.

And the IC50 (MOLM-13 [15])?
The IC50 was 13 nM.

And the Activity (MOLM-13 [16])?
Its Activity is “Active”.

And the AUClast [17]?
Its AUClast is 264 ng·h/mL.

And the t1/2 [19]?
Its t1/2 is over 10 h.

And the Cmax [20]?
The Cmax was 2700 ng/mL.

What about the t1/2 [26] of the same molecule?
Its t1/2 is over 3.6 h.

What about the Papp [22] of the same molecule?
Its Papp is 26.2 ×10⁻⁶ cm/s.

What about the t1/2 [23] of the same molecule?
The t1/2 was 25 h.

And the Cmax [24]?
Its Cmax is 207 ng/mL.

What does the source list for O=C1CCC(N2Cc3cc(Nc4noc5cc(F)ccc45)ccc3C2=O)C(=O)N1 (stereo not given)?
Papp [4]: 19.7 ×10⁻⁶ cm/s; Vdss [27]: 1.34 L/kg; solubility [5]: 26 µM (≈ 10.3 µg/mL); F [28]: 10%; t1/2 [29]: 1.98 h; Cmax [30]: 330 ng/mL; Emax [8]: 95%; DC50 [9]: 4 nM; Activity [13]: 3.5 h⁻¹; AUClast [31]: 306 ng·h/mL; t1/2 [25]: > 3.6 h; IC50 (MOLM-13 [15]): 21 nM; Cmax [32]: 4240 ng/mL; t1/2 [19]: > 10 h; AUClast [33]: 911 ng·h/mL; Papp [22]: 10.4 ×10⁻⁶ cm/s; t1/2 [23]: 17 h
